From PubChem BioAssay (NCI)
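Each compound was tested at five concentrations against cells in 96-well plates for 48 hours. TGI: concentration producing complete growth inhibition.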

What was measured:
Assay in all cases: NCI-60 cell line screen, 48 h
OVCAR-4 ovarian = system: OVCAR-4 ovarian
HS 578T breast = system: HS 578T breast
786-0 renal = system: 786-0 renal
LOX IMVI melanoma = system: LOX IMVI melanoma
ACHN renal = system: ACHN renal
A498 renal = system: A498 renal
TK-10 renal = system: TK-10 renal
A549 NSCLC = system: A549 NSCLC
SN12C renal = system: SN12C renal
SNB-75 CNS = system: SNB-75 CNS
SK-MEL-5 melanoma = system: SK-MEL-5 melanoma
SF-295 CNS = system: SF-295 CNS
MCF7 breast = system: MCF7 breast
OVCAR-8 ovarian = system: OVCAR-8 ovarian
UACC-62 melanoma = system: UACC-62 melanoma
RPMI-8226 leukemia = system: RPMI-8226 leukemia
SR leukemia = system: SR leukemia
T-47D breast = system: T-47D breast
UO-31 renal = system: UO-31 renal
U251 CNS = system: U251 CNS
BT-549 breast = system: BT-549 breast
IGROV1 ovarian = system: IGROV1 ovarian
SF-539 CNS = system: SF-539 CNS
NCI/ADR-RES ovarian = system: NCI/ADR-RES ovarian
SK-OV-3 ovarian = system: SK-OV-3 ovarian
SF-268 CNS = system: SF-268 CNS
HCC-2998 colon = system: HCC-2998 colon
HT29 colon = system: HT29 colon
M14 melanoma = system: M14 melanoma
HCT-116 colon = system: HCT-116 colon
CCRF-CEM leukemia = system: CCRF-CEM leukemia
EKVX NSCLC = system: EKVX NSCLC
KM12 colon = system: KM12 colon
MOLT-4 leukemia = system: MOLT-4 leukemia
COLO 205 colon = system: COLO 205 colon
CAKI-1 renal = system: CAKI-1 renal
SK-MEL-28 melanoma = system: SK-MEL-28 melanoma
K-562 leukemia = system: K-562 leukemia
OVCAR-5 ovarian = system: OVCAR-5 ovarian
SK-MEL-2 melanoma = system: SK-MEL-2 melanoma
DU-145 prostate = system: DU-145 prostate
MDA-MB-231 breast = system: MDA-MB-231 breast
HOP-92 NSCLC = system: HOP-92 NSCLC
SNB-19 CNS = system: SNB-19 CNS
NCI-H460 lung = system: NCI-H460 lung
SW-620 colon = system: SW-620 colon
NCI-H23 lung = system: NCI-H23 lung
OVCAR-3 ovarian = system: OVCAR-3 ovarian
NCI-H522 lung = system: NCI-H522 lung
HCT-15 colon = system: HCT-15 colon
MDA-MB-435 = system: MDA-MB-435
HOP-62 NSCLC = system: HOP-62 NSCLC
HL-60(TB) leukemia = system: HL-60(TB) leukemia
NCI-H226 lung = system: NCI-H226 lung
PC-3 prostate = system: PC-3 prostate
RXF 393 renal = system: RXF 393 renal
MDA-N = system: MDA-N
UACC-257 melanoma = system: UACC-257 melanoma
MALME-3M melanoma = system: MALME-3M melanoma

Measured: TGI

O=C(/C=C/NC(=O)OCc1ccccc1)OCc1ccccc1
> 100 µM: OVCAR-4 ovarian | HS 578T breast | 786-0 renal | LOX IMVI melanoma | ACHN renal | A498 renal | TK-10 renal | A549 NSCLC | SN12C renal | SNB-75 CNS | SK-MEL-5 melanoma | SF-295 CNS | MCF7 breast | OVCAR-8 ovarian | UACC-62 melanoma | RPMI-8226 leukemia | SR leukemia | T-47D breast | UO-31 renal | U251 CNS | BT-549 breast | IGROV1 ovarian | SF-539 CNS | NCI/ADR-RES ovarian | SK-OV-3 ovarian | SF-268 CNS | HCC-2998 colon | HT29 colon | M14 melanoma | HCT-116 colon | CCRF-CEM leukemia | EKVX NSCLC | KM12 colon | MOLT-4 leukemia | COLO 205 colon | CAKI-1 renal | SK-MEL-28 melanoma | K-562 leukemia | OVCAR-5 ovarian | SK-MEL-2 melanoma | DU-145 prostate | MDA-MB-231 breast | HOP-92 NSCLC | SNB-19 CNS | NCI-H460 lung | SW-620 colon | NCI-H23 lung | OVCAR-3 ovarian | NCI-H522 lung | HCT-15 colon | MDA-MB-435 | HOP-62 NSCLC | HL-60(TB) leukemia | NCI-H226 lung | PC-3 prostate | RXF 393 renal | MDA-N | UACC-257 melanoma | MALME-3M melanoma
